Consider two substances from US9255258B2 (priority 2009, dated 2016).

Read-outs that look alike come from different tables or passages of the source.

Assay [1] concerns the target Phi29 (exo-) (D169A mutant) (Bacillus phage phi29, UniProt P03680, D169A). The procedure:
Base Reading Mix: 50 mM Tris (pH 7.5), 50 mM NaCl, 5 mM CaCl2, 0.2% BSA, 80 μg/mL glucose oxidase; 2000 U/mL Katalase; 1 mM Trolox; 0.5% glucose; 250 nM Phi29 (exo-) (D169A mutant), 500 nM non-hydrolyzable nucleotide (AF647-C6 alkyl linker-alpha-thio-dA4P nucleotide analog, labeled at the terminal phosphate with ALEXA FLUOR 647).
Commercial nanoparticles (605 ITK SAV quantum dots, Invitrogen, catalog # Q10001MP) were immobilized onto PEG/PEG-biotin coverslip surfaces at 5 pM for 4 minutes. The surface-immobilized nanoparticles were saturated with hairpin molecules via the biotin in the loop.
All the transient-binding and extension steps as well as the protocols and the imaging conditions were identical to the ones described in Example 8 above (6-Base Extension, 2-Color Sequencing, in the Presence of Calcium). In this experiment only one non-hydrolyzable-AF647-dA4P were used in all transient-binding steps.
The transient-binding reaction steps, using labeled non-hydrolyzable nucleotides steps, were conducted at room temperature and included: • 1.

Another assay concerns the target Klenow (exo-) (Escherichia coli, UniProt P00582, D355A/E357A). To be noted: P2-1 primer (template nucleotide A); 200 nM each of four base-labeled nucleotides, 250 nM Klenow (exo-), 10 mM CaCl2.

Description for Klenow (exo-): The following procedure was conducted using a SOLID sequencing instrument (SOLiD 0025) (Applied Biosystems, Foster City, Calif.), and template/primer duplexes immobilized on SOLiD S3 clonal beads, SOLiD flowcells, and Klenow polymerase.
Seven μM of the P2 primer, in 1×SSPE (150 mM NaCl, 10 mM sodium phosphate, 1 mM EDTA), was added to a SOLiD flowcell containing beads/template immobilized on a glass slide, at 25° C., then hybridized at 75° C. for 1 minute, 70° C. for 2 minutes, 65° C. for 2 minutes, 60° C. for 2 minutes, and washed with 1× Instrumentation Buffer (AB Part No. 4389784).
The labeled nucleotides were obtained from PerkinElmer Life and Analytical Science (Boston, Mass.): Cy5-dUTP, Cy3-dCTP, FAM-dGTP, and Texas Red (TxR)-dATP (base-labeled nucleotides). The Klenow fragment polymerase was obtained from New England Biolabs (No. M0212L, Ipswich, Mass.).
The beads were washed with 3 mL of Universal Buffer (50 mM NaCl, 10 mM Tris-HCl (pH 8), 10 mM CaCl2, 2 mM DTT). And 0.2 mL of Sensing Buffer Mix (200 nM each of Cy5-dUTP, Cy3-dCTP, Fam-dGTP, and Texas Red-dATP; 250 nM Klenow (exo-) in the Universal Buffer) was injected into the flowcell and incubated for 5 minutes at room temperature. […]

On to “AF647-C6 alkyl linker-alpha-thio-dA4P nucleotide analog [alpha-thio-dA4P-AF647]”, for which the “signal from transiently-bound nucleotide” value is listed as “no detectable signal” in assay [1] (Base Reading Mix containing 5 mM MnCl2 (instead of CaCl2), correct nucleotide, 500 nM) and “detectable immediately upon addition of the calcium” in assay [1] (after addition of CaCl2 (approximated 5-10 mM) to the manganese reaction, without washing).
In the case of Cy5-dUTP, the “bead fluorescence after wash” value on Klenow (exo-) is recorded as “fluoresce to a greater degree than the other dye-labeled nucleotides”.
